According to US6136803A, “Antidepressants” (Merrell Pharmaceuticals Inc., priority 1998, dated 2000):
Read-outs that look alike come from different tables or passages of the source.

Test system: -adrenergic receptors (rat cerebral cortical membranes)
Details: desipramine 5 mg/kg, i.p.; for [3H]-DHA Specifically Bound: six animals per group, mean ± SEM; for % Control ([3H]-DHA specifically bound): vs saline
Protocol: The number of -adrenergic receptors in rat cerebral cortical membranes was measured after a 4 day and 14 day course of one of the following treatments:
a) saline control (intraperitoneal injection - i.p.)
c) fluoxetine (10 mg/kg/day, i.p.) or (10 mg/kg bid, i.p.)
Male Sprague-Dawley rats (175-200 g) were assigned randomly to one of the four treatment groups above and were treated as indicated for either 4 or 14 days. The animals were sacrificed 24 hours after their last treatment and cerebral cortical membranes were isolated. These membranes were assayed for -adrenergic receptor number by the method of Bylund and Snyder [Mol. Pharmacol. 12, 568 (1976)] by measuring the amount of [^3 H]dihydro-alprenolol ([^3 H]-DHA) bound.

CNCCC(Oc1ccc(C(F)(F)F)cc1)c1ccccc1 (stereo not shown) [Fluoxetine, fluoxetine]
[3H]-DHA Specifically Bound (A) 14 days, fluoxetine 10 mg/kg, saline control 41.8 ± 1.4, * p<0.05 vs saline, + P<0.05 vs desipramine): 37.9 ± 1.8 fmol/mg protein
% Control ([3H]-DHA specifically bound) (A) 14 days, fluoxetine 10 mg/kg): 91 % Control
[3H]-DHA Specifically Bound (B) 4 days, fluoxetine 10 mg/kg bid, saline control 54.6 ± 3.1, * p<0.05 vs saline): 51.8 ± 1.7 fmol/mg protein
% Control ([3H]-DHA specifically bound) (B) 4 days, fluoxetine 10 mg/kg bid): 95 % Control
